The source of these data is paper PMC12530842, “Potent, Selective, and Drug‐Like G Protein‐Coupled Receptor Kinase 5 and 6 Inhibitors: Design, Synthesis, and X‐Ray Structural Studies” (Chemmedchem, 2025).

Experiment [1] addresses T1, GRK2 (Homo sapiens, UniProt P25098).
T1 construct: made in house
T1 sequence (P25098 1-689): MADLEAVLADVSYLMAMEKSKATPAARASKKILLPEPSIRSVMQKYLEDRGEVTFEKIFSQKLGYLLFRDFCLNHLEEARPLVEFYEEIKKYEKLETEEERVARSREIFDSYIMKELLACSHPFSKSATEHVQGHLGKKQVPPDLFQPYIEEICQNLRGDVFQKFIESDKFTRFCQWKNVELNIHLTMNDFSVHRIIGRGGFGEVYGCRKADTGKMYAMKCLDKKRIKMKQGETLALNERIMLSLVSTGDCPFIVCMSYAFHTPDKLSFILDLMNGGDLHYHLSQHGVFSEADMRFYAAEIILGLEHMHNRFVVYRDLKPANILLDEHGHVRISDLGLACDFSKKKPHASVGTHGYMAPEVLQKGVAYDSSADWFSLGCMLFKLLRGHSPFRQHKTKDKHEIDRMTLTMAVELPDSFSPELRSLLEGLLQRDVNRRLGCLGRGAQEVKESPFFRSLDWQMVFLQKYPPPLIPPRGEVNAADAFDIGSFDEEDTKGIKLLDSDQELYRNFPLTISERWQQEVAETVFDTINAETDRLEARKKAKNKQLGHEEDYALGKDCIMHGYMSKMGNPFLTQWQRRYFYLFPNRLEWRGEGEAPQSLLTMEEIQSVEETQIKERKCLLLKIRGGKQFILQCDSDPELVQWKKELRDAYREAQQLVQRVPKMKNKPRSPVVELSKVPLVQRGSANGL
Particulars: earlier work; cited from earlier work.

Experiment [2] concerns the target T2, GRK5 (Homo sapiens, UniProt P34947).
T2 construct: Human GR K5 (residues 1- 590) w ild- type and D 311N mutant w ere expressed in E. co li Rosetta; His tag (inferred from nickel-NTA purification); made in house; host or cells: E. coli Rosetta (DE3)
Nature of the experiment: GRK5 kinase inhibition assay, phosphorylation of tubulin ([γ-32P]-ATP). In kind it is biochemical. Particulars: for Selectivity GRK2/GRK5: fold selectivity for GRK5 over GRK2; for IC50: phosphorylation of the soluble substrate tubulin, ± standard deviation from 3 to 4 independent experiments. How it is done: (§1) The inhibitory potency of synthetic compounds containing the N‐heterocyclic amide functionalities was evaluated against human GRK2, GRK5 and GRK6 using our in vitro assays‐, as reported previously.^[ [35], [37] ^] […] We then investigated the effect of (R)‐ and (S)‐Boc pyrrolidine carboxamide derivatives. […] These improvements of GRK5 IC50 values over their Boc‐derivatives (6c and 6d) indicated the bulky Boc group may not be able to fit as well in the catalytic site of these GRKs. On the other hand, sterically less demanding acetamide derivatives 6e and 6f were well accommodated consistent with their very good activity against GRK5, GRK6, and GRK2, but only with marginal selectivity against GRK2. […] We also examined the effect of 3(S)‐ and 3(R)‐Boc‐pyrrolidine derivatives.
(§2) Protein expression and purification.
(§3) Human GR K5 (residues 1- 590) w ild- type and D 311N mutant w ere expressed in E. co li Rosetta (D E3) and purified v ia nickel-nitrilotriacetic acid affinity chromatography, followed by tandem columns consisting of a HiTrap Q HP anion exchange chromatography column and a HiTrap SP HP cation exchange chromatography column, and finished by Superdex 200 Increase size -exclusion chromatography, as described previously. Human GRK6 (with T10A and mutations that eliminate palmitoylation sites) was expressed in Sf9 insect cells [ 2] and was purified w ith the same protocol for GR K5 [1]. Human GRK2 w as purified as described previously.
(§4) Kinase inhibition Assays.
(§5) Inhibit ion assays were conducted in a reaction mixture containing 20 mM H EPES pH 7. 0, 2 mM MgC l2, and 0.025% n- dodecyl-β-D-maltoside. Prior to reaction initiation, GR K5 or GR K6 at 50 nM was mixed w ith porcine brain tubulin ( PurSolutions) at a concentration of 500 nM. The assay w as started w ith a 30- second incubation of inhibitors, followed by the add it ion of 5 μ M ATP supplemented w ith radioactive [γ-32P]-AT P a t 60 C i/m mol (PerkinElm er Life Sciences). Re actions pro ceeded for 5 m inut es at ro o m te mpera ture a nd were terminated by adding 4X SDS loading buffer. T he reaction mixtures were then s eparated via SDS - PAG E, dried, and exposed using a phosphor imaging screen. Quantification was performed using a Personal Molecular Imager and Quantity One 1- D Analysis Software. Analogous inhibition assays were conducted on p urified GR K2 wit h a t ub ulin conce ntrat ion of 1 μ M. Data ana lysis was perf orme d usin g Graph Pa d Pr ism, and IC50 values wer e calculated based on three- parameter dose- dependent curves (with a Hill coefficient fixed at 1) plotting phosphate transfer against inhibitor concentration. At least three replicates were conducted to determine the mean and standard deviation of IC50 values as published previously . […]
(§6) (6) The final models w ere validated with MolProbity prior to depos ition along with structure factors in the Protein Data Bank. Atomic figures were created with Py mol (7). Cr ystallographic statistics are reported in Supplemental Table 1. Coordinates for inh ib itor 6t (GRL-098- 22) w ere deposited in the Protein Data Bank, with accession code 9BR K.
(§7) 1. Y. Chen, A. Sonawane, R. Manda, R. K. G adi, J. J. G. Tesmer, A. K. Ghosh. Development of a new class of potent and highly select ive G protein- coupled r eceptor kinase 5 inhibitors and structural insight from crystal structures of inhibitor complexes. Eur. J. Med. Chem. 2024, 264, 115931.
(§8) 2. D. T. Lodowski, V. M. T esmer, J. L. Benovic, J. J. Tesmer. The structure of G protein- coupled receptor kinase (GRK)-6 defines a second lineage of GRKs. J. Bio l. C he m. 2006, 281,16785- 16793.

Experiment [3] addresses T3, GRK6 (Homo sapiens, UniProt P43250, C561S/C562S/C565S/T10A).
T3 construct: His tag (inferred: purified by the GRK5 protocol, which starts with nickel-NTA); made in house; host or cells: Sf9 insect cells
As to the kind of experiment: GRK6 kinase inhibition assay, phosphorylation of tubulin ([γ-32P]-ATP). Format: biochemical. Particulars: for Selectivity GRK5/GRK6: fold selectivity for GRK6 over GRK5; for IC50: phosphorylation of the soluble substrate tubulin, ± standard deviation from 3 to 4 independent experiments. The method, then:
as §1, §2, §3, §4, §5, §6, §7, §8

The target in experiment [4] is T1, GRK2. As to the kind of experiment: GRK2 kinase inhibition assay, phosphorylation of tubulin ([γ-32P]-ATP). In kind it is biochemical. Particulars: phosphorylation of the soluble substrate tubulin; ± standard deviation from 3 to 4 independent experiments. The method, then: as §1, §2, §3, §4, §5, §6, §7, §8

For orientation: IC50 means the midpoint of a concentration-inhibition curve.

Where two headings read alike, the source gives them in different places.

T3 sequence (P43250 whole entry T10A/C561S/C562S/C565S): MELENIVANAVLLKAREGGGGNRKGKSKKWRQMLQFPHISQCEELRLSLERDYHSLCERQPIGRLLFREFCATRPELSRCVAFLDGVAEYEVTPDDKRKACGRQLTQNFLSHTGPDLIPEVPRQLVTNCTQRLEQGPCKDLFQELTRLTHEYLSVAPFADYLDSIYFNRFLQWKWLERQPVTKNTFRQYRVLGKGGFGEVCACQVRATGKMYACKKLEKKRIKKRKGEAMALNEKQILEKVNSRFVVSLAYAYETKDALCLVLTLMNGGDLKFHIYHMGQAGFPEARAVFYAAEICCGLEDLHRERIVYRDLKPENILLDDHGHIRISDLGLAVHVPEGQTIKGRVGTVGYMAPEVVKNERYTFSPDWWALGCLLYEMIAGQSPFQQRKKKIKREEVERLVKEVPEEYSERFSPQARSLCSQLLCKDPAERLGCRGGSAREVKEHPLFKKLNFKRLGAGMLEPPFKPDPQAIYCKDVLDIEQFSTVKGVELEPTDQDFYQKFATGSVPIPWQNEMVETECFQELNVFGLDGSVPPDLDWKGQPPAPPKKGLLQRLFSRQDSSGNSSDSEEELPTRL
T2 sequence (P34947 whole entry, the tested form may be a part): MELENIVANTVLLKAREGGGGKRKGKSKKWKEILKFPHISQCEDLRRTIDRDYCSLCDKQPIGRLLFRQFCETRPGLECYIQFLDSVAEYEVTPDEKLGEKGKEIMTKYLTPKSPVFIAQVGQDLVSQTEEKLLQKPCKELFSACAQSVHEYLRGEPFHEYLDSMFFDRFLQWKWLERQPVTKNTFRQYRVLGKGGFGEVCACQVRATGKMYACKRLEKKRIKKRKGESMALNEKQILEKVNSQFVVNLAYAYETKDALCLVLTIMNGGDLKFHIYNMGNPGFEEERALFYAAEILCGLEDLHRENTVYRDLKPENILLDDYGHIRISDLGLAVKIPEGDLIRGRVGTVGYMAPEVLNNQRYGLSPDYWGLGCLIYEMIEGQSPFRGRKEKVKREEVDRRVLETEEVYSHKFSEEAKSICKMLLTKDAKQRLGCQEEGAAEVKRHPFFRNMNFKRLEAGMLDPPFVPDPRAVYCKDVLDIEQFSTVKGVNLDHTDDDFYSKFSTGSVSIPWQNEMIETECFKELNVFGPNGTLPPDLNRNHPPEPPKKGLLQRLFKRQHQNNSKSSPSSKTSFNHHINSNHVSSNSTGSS

Consider `Cc1[nH]c(/C=C2\C(=O)Nc3ccc(C(=O)N[C@H](C)c4ccc(F)cc4)cc32)c(C)c1NC(=O)CCl` [compound 1], for which, in experiment [1], the concentration for half-maximal inhibition (IC50) is 1200 nM.
For the compound `Cc1[nH]c(/C=C2\C(=O)Nc3ccc(C(=O)N[C@H](C)c4ccc(F)cc4)cc32)c(C)c1NC(=O)[C@H]1CCCN1` [6g, (Z)‐3‐((3,5‐Dimethyl‐4‐((R)‐Pyrrolidine‐2‐Carboxamido)‐1H‐Pyrrol‐2‐yl)Methylene)‐N‐((R)‐1‐(4‐Fluorophenyl)Ethyl)‐2‐Oxoindoline‐5‐Carboxamide], in experiment [2], the “Selectivity GRK2/GRK5” value is reported as 3 fold and the IC50 came out at 40 ± 20 nM. In experiment [3], the “Selectivity GRK5/GRK6” value is on record as 1 fold and the IC50 came to 30 ± 2 nM. This compound returned an IC50 in experiment [4] of 100 ± 10 nM.
With `Cc1[nH]c(/C=C2\C(=O)Nc3ccc(C(=O)N[C@H](C)c4ccc(F)cc4)cc32)c(C)c1NC(=O)[C@@H]1CCCN(C(=O)OC(C)(C)C)C1` [6p, Tert‐Butyl(R)‐3‐((5‐(((Z)‐5‐(((R)‐1‐(4‐Fluorophenyl)Ethyl)Carbamoyl)‐2‐Oxoindolin‐3‐Ylidene)Methyl)‐2,4‐Dimethyl‐1H‐Pyrrol‐3‐Yl)Carbamoyl)Piperidine‐1‐Carboxylate], the “selectivity over GRK2” value in experiment [2] (GRK5 vs GRK2, as stated in text) is recorded as “over 1500 fold”. Moreover, in experiment [2], the “Selectivity GRK2/GRK5” value stood at 1500 fold and the IC50 worked out at 410 ± 100 nM. For the same compound, in experiment [3], the “Selectivity GRK5/GRK6” value is 1 fold and the IC50 is 340 ± 300 nM. The compound also returned an IC50 in experiment [4] of 610000 ± 450000 nM.
